Results published in patent US12544395B2, “Combination compositions comprising a beta-lactamase inhibitor and uses thereof” (priority 2018, dated 2026).

What was measured:
Format in all cases: cell-based
K. pneumoniae 304487 = assay: Broth microdilution MIC (strain enzymes: SHV-12,TEM-1)
K. pneumoniae 319478 = assay: Broth microdilution MIC (strain enzymes: SHV-12, CTX-M3 and TEM-1)
K. pneumoniae 329633 = assay: Broth microdilution MIC (strain enzymes: SHV-5, TEM-1)
K. pneumoniae ESBL 10 = assay: Broth microdilution MIC (strain enzymes: SHV-12, TEM-1)
K. pneumoniae ESBL 7 #1 = assay: as above
K. pneumoniae ESBL 8 #2 = assay: as above

## CCC(=O)N[C@H]1Cc2cccc(C(=O)O)c2OB1O [Compound 2, (R)-2-hydroxy-3-propionamido-3,4-dihydro-2H-benzo[e][1,2]oxaborinine-8-carboxylic acid]
K. pneumoniae 304487; with inhibitor at 2 μg/mL
  MIC of cefalexin (LEX): 1 µg/mL
  MIC of cefdinir (CDR): 1 µg/mL
  MIC of cefixime (CFM): 1 µg/mL
  MIC of ceftibuten (CTB): 0.25 µg/mL
K. pneumoniae 304487; with inhibitor at 4 μg/mL
  MIC of cefalexin (LEX): 2 µg/mL
  MIC of cefdinir (CDR): 2 µg/mL
  MIC of cefixime (CFM): 0.5 µg/mL
  MIC of ceftibuten (CTB): 0.25 µg/mL
K. pneumoniae 319478; with inhibitor at 1 μg/mL
  MIC of cefalexin (LEX): 4 µg/mL
  MIC of cefdinir (CDR): 4 µg/mL
  MIC of cefixime (CFM): 2 µg/mL
  MIC of ceftibuten (CTB): 0.125 µg/mL
K. pneumoniae 319478; with inhibitor at 2 μg/mL
  MIC of cefalexin (LEX): 2 µg/mL
  MIC of cefdinir (CDR): 2 µg/mL
  MIC of cefixime (CFM): 2 µg/mL
  MIC of ceftibuten (CTB): 0.25 µg/mL
K. pneumoniae 319478; with inhibitor at 4 μg/mL
  MIC of cefalexin (LEX): 2 µg/mL
  MIC of cefdinir (CDR): 2 µg/mL
  MIC of cefixime (CFM): 1 µg/mL
  MIC of ceftibuten (CTB): 0.125 µg/mL
K. pneumoniae 329633; with inhibitor at 1 μg/mL
  MIC of cefalexin (LEX): 0.25 µg/mL
  MIC of cefdinir (CDR): 0.25 µg/mL
  MIC of cefixime (CFM): 1 µg/mL
  MIC of ceftibuten (CTB): 0.06 µg/mL
K. pneumoniae 329633; with inhibitor at 2 μg/mL
  MIC of cefalexin (LEX): 0.25 µg/mL
  MIC of cefdinir (CDR): 0.25 µg/mL
  MIC of cefixime (CFM): 0.5 µg/mL
  MIC of ceftibuten (CTB): 0.06 µg/mL
K. pneumoniae 329633; with inhibitor at 4 μg/mL
  MIC of cefalexin (LEX): 1 µg/mL
  MIC of cefdinir (CDR): 1 µg/mL
  MIC of cefixime (CFM): 0.5 µg/mL
  MIC of ceftibuten (CTB): 0.06 µg/mL
K. pneumoniae ESBL 10; with inhibitor at 1 μg/mL
  MIC of cefalexin (LEX): 1 µg/mL
  MIC of cefdinir (CDR): 1 µg/mL
  MIC of cefixime (CFM): 2 µg/mL
  MIC of ceftibuten (CTB): 0.25 µg/mL
K. pneumoniae ESBL 10; with inhibitor at 2 μg/mL
  MIC of cefalexin (LEX): 1 µg/mL
  MIC of cefdinir (CDR): 1 µg/mL
  MIC of cefixime (CFM): 1 µg/mL
  MIC of ceftibuten (CTB): 0.25 µg/mL
K. pneumoniae ESBL 10; with inhibitor at 4 μg/mL
  MIC of cefalexin (LEX): 0.5 µg/mL
  MIC of cefdinir (CDR): 0.5 µg/mL
  MIC of cefixime (CFM): 0.5 µg/mL
  MIC of ceftibuten (CTB): 0.25 µg/mL
K. pneumoniae ESBL 7 #1; with inhibitor at 1 μg/mL
  MIC of cefalexin (LEX): 0.5 µg/mL
  MIC of cefdinir (CDR): 0.5 µg/mL
  MIC of cefixime (CFM): 4 µg/mL
  MIC of ceftibuten (CTB): 0.25 µg/mL
K. pneumoniae ESBL 7 #1; with inhibitor at 2 μg/mL
  MIC of cefalexin (LEX): 1 µg/mL
  MIC of cefdinir (CDR): 1 µg/mL
  MIC of cefixime (CFM): 4 µg/mL
  MIC of ceftibuten (CTB): 0.25 µg/mL
K. pneumoniae ESBL 7 #1; with inhibitor at 4 μg/mL
  MIC of cefalexin (LEX): 0.5 µg/mL
  MIC of cefdinir (CDR): 0.5 µg/mL
  MIC of cefixime (CFM): 1 µg/mL
  MIC of ceftibuten (CTB): 0.125 µg/mL
K. pneumoniae ESBL 8 #2; with inhibitor at 1 μg/mL
  MIC of cefalexin (LEX): 0.5 µg/mL
  MIC of cefdinir (CDR): 0.5 µg/mL
  MIC of cefixime (CFM): 2 µg/mL
  MIC of ceftibuten (CTB): 0.125 µg/mL
K. pneumoniae ESBL 8 #2; with inhibitor at 2 μg/mL
  MIC of cefalexin (LEX): 0.25 µg/mL
  MIC of cefdinir (CDR): 0.25 µg/mL
